Data taken from patent US20070141129A1, “Wound care product comprising a substance which inhibits the growth of bacteria in wounds” (priority 2003, published 2007).
Entries after “also recorded” stand apart in the source; their conditions may differ.

What was measured:
[1] = test system: VRE; test: growth of VRE with xylitol; assay type: cell-based, vancocin-resistant enterococci
Description: (§1) The bacterial strains were stored at −70° C. Immediately prior to each experiment, these strains were taken out and placed on a blood plate and incubated overnight at 35° C. The same incubator was used in all the experiments. After that, a loop of the colonies which had grown was incubated in brain heart infusion (BHI) broth for 18 hours. 100 μl of this broth were inoculated into 3-5 ml of fresh BHI broth with or without the addition of xylitol. Different contents of xylitol were added. As is evident from FIGS. 1-5, the contents of xylitol were 1%, 2.5%, 5% and 10%.
(§2) The transmittance or translucency was measured from hour 0, and after that every hour, for 6 hours on a Biolog turbidimeter from the company Biolog Inc., Hayward, Calif., USA. The growth of bacteria reduces the translucency, i.e. the lower the transmittance the greater the growth of the bacteria.
(§3) At 0 hours and at 6 hours, 100 μl of the broth were cultured and the number of live bacteria was counted. The transmittance value and the quantity of bacteria (colony forming units/ml) in tubes with and without xylitol were then compared.

[2] = test system: S. aureus (including MRSA), group A, B, C and G streptococci, enterococci (including VRE) and Pseudomonas aeruginosa; test: growth of wound infection bacteria in nutrient-rich medium with added xylitol; assay type: cell-based; settings: xylitol (1-10%) in nutrient-rich medium
Description: as §1, §2, §3

[3] = test system: S. aureus; test: growth of S. aureus in BHI broth with added xylitol (transmittance); assay type: cell-based, Staphylococcus aureus
Description: as §1, §2, §3

[4] = test system: S. aureus; settings: cited from earlier work
[5] = toxicity assessed as so low; cited from earlier work
[6] = test system: bacteria; settings: bacteriological tests; cited from earlier work
[7] = test system: P. aeruginosa; test: growth of P. aeruginosa in BHI broth with added xylitol; assay type: cell-based, Pseudomonas aeruginosa; settings: xylitol added to BHI, 1-10% (FIG. 5)
Description: as §1, §2, §3

[8] = children, clinical study; cited from earlier work
[9] = test system: group G streptococci; test: growth of group G streptococci in BHI broth with added xylitol; assay type: cell-based; settings: xylitol added to BHI, 1-10% (FIG. 4)
Description: as §1, §2, §3

[10] = test system: intestinal bacteria which cause diarrhoea, bacteria which give rise to ear inflammations, yeast fungus; settings: cited from earlier work
[11] = test system: group B streptococci; test: growth of group B streptococci in BHI broth with added xylitol; assay type: cell-based; settings: xylitol added to BHI, 1-10% (FIG. 3)
Description: as §1, §2, §3

[12] = test system: alpha-streptococci; settings: oral flora; uptake via fructose phosphotransferase system; cited from earlier work
[13] = test system: beta-haemolytic streptococci, including group B streptococci; test: growth of beta-haemolytic streptococci with xylitol; assay type: cell-based
Description: as §1, §2, §3

[14] = test system: epithelial cells in the skin; settings: cited from earlier work
[15] = test system: S. aureus (multiresistant), MRSA strain; test: growth of multiresistant S. aureus (MRSA strain) in BHI broth with added xylitol (transmittance); assay type: cell-based, Staphylococcus aureus
Description: as §1, §2, §3

OC[C@@H](O)[C@H](O)[C@@H](O)CO [xylitol]
inhibition of growth of the bacteria [1]: effective in combating the growth | reduction of growth, factor [2]: ≤ 1000 | bacterial growth after 2 hours ([3]; BHI containing 10% added xylitol, 2 hours (FIG. 1)): hardly any bacterial growth at all | translucency (transmittance) after 6 hours ([3]; BHI nutrient solution, 10% xylitol added, 6 hours, without xylitol 20 (FIG. 1)): more than 60% | production of glycocalyx [4]: decrease | limit value for an acceptable daily intake [5]: no limit value | mutagenic properties (increase in natural mutation frequency) [6]: No mutagenic properties | inhibition of growth of the bacteria [7]: effective in combating the growth; also recorded: very effective in inhibiting the growth | reduction of the number of ear inflammations [8]: up to 40% | inhibition of growth of the bacteria [9]: very effective in inhibiting the growth | adherence of bacteria [10]: decreases the adherence | inhibition of growth of the bacteria [11]: effectively inhibited | growth of alpha-streptococci [12]: inhibited | effect against the bacteria [13]: also effective | absorption by epithelial cells in the skin [14]: only absorbed to a very slight extent | translucency after 6 hours ([15]; 10% added xylitol, 6 hours, without xylitol approx. 30% (FIG. 2)): more than 70% | inhibition of growth of the bacteria ([15]; xylitol added to nutrient solution, 1-10%): effective in combating the growth; also recorded: inhibited very effectively
